Results taken from BindingDB's records for doi:10.1021/jm050532w (Glaxosmithkline, 2005).

Assays:
[1] = molecular target: T1, Oxysterols receptor LXR-beta (Homo sapiens, UniProt P55055); assay: Cell-Free Ligand Sensing Assay (LiSA)-LXRbeta-SRC1 Assay; conditions: pH 7.5; 22 °C
T1 sequence (P55055 whole entry): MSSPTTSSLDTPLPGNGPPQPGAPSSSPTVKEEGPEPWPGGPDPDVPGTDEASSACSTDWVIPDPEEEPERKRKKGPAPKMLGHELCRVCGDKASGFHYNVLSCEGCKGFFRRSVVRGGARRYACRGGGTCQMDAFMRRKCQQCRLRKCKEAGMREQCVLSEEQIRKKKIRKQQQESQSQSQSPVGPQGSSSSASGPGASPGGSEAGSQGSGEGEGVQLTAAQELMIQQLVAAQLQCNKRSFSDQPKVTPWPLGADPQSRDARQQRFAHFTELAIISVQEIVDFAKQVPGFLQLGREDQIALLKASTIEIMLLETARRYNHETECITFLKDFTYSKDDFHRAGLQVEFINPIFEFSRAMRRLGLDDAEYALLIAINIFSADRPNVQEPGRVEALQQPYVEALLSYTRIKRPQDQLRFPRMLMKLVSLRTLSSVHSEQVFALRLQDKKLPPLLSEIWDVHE
Procedure: (§1) The LXR LiSA measures the ligand-dependent recruitment of a 25 amino acid fragment of the steroid receptor coactivator 1 (SRC1) to the ligand-binding domain of the receptor. The biotinylated protein was incubated with streptavidin-AlloPhycoCyanin, biotinylated SRC-1 peptide, and streptavidin-labeled europium. The fluorescence resonance energy transfer was then counted on a Wallac Victor fluorescent plate reader in a time-resolved mode.

[2] = molecular target: T2, Oxysterols receptor LXR-alpha (Homo sapiens, UniProt Q13133); assay: Cell-Free Ligand Sensing Assay (LiSA)-LXRalpha-SRC1 Assay; conditions: pH 7.5; 22 °C
T2 sequence (Q13133 whole entry): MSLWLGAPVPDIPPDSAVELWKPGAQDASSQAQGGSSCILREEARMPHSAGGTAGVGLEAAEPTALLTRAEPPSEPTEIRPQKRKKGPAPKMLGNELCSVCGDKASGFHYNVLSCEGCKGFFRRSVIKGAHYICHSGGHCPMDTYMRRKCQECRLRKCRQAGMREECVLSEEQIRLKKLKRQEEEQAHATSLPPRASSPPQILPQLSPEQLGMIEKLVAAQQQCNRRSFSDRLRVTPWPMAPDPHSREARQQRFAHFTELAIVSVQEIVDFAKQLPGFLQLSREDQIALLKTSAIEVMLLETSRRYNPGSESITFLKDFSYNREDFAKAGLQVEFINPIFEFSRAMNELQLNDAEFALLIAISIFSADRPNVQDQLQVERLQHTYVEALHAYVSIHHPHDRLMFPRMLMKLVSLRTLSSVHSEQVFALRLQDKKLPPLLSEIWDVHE
Procedure: as §1

- EC50 [1]: 260 nM
- EC50 [2]: 275 nM
Compound: COc1ccc(N=C2C(=O)N(c3ccccc3)C(=O)C2c2ccccc2)cc1 (configuration not stated) [3-[(4-methoxyphenyl)amino]-1,4-diphenyl-2,5-dihydro-1H-pyrrole-2,5-dione]
